Source: PubChem BioAssay AID2060496 (Molecular Pharmacology Branch, DTP, NCI, 2025)

Tested on: 276233-004-R-J1-PDC complex spheroid viability
Experiment: Anticancer human tumor 276233-004-R-J1-PDC patient-derived colon adenocarcinoma cell line growth inhibition [GQUAD]
Conditions: for IC50: curve of first compound; for viability, T/C: stronger effect = lower value; active = viability on the fitted dose curve at most 10% of control; inactive = the rest
Method in brief: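 Multi-cell-type spheroids of tumor cells with HUVEC and mesenchymal stem cells, treated with drug combinations. Concentrations descend in half-log steps from near clinical Cmax, or from 10 microM where Cmax is unknown; viability read-out.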

[1] = second compound 0.0316 µM, first compound 0.0316 µM
[2] = second compound 0.0316 µM, first compound 0.1 µM
[3] = second compound 0.0316 µM, first compound 0.316 µM
[4] = second compound 0.0316 µM, first compound 1 µM
[5] = second compound 0.0316 µM, first compound 3.16 µM
[6] = second compound 0.0316 µM, first compound 10 µM
[7] = second compound 0.1 µM, first compound 0.0316 µM
[8] = second compound 0.1 µM, first compound 0.1 µM
[9] = second compound 0.1 µM, first compound 0.316 µM
[10] = second compound 0.1 µM, first compound 1 µM
[11] = second compound 0.1 µM, first compound 3.16 µM
[12] = second compound 0.1 µM, first compound 10 µM
[13] = second compound 0.316 µM, first compound 0.0316 µM
[14] = second compound 0.316 µM, first compound 0.1 µM
[15] = second compound 0.316 µM, first compound 0.316 µM
[16] = second compound 0.316 µM, first compound 1 µM
[17] = second compound 0.316 µM, first compound 3.16 µM
[18] = second compound 0.316 µM, first compound 10 µM
[19] = second compound 1 µM, first compound 0.0316 µM
[20] = second compound 1 µM, first compound 0.1 µM
[21] = second compound 1 µM, first compound 0.316 µM
[22] = second compound 1 µM, first compound 1 µM
[23] = second compound 1 µM, first compound 3.16 µM
[24] = second compound 1 µM, first compound 10 µM
[25] = second compound 3.16 µM, first compound 0.0316 µM
[26] = second compound 3.16 µM, first compound 0.1 µM
[27] = second compound 3.16 µM, first compound 0.316 µM
[28] = second compound 3.16 µM, first compound 1 µM
[29] = second compound 3.16 µM, first compound 3.16 µM
[30] = second compound 3.16 µM, first compound 10 µM
[31] = second compound 10 µM, first compound 0.0316 µM
[32] = second compound 10 µM, first compound 0.1 µM
[33] = second compound 10 µM, first compound 0.316 µM
[34] = second compound 10 µM, first compound 1 µM
[35] = second compound 10 µM, first compound 3.16 µM
[36] = second compound 10 µM, first compound 10 µM
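Also: spheroids exposed to drugs for seven days.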
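For viability, T/C in this document: 100% = DMSO vehicle control viability.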

Cc1cccc(N(C)C(=O)C2C(O)CCN2c2nc(C)cc(C(F)(F)F)c2C#N)c1 (stereo unspecified) + Cc1cnc(CNC(=O)c2c(=O)c3ccc(N4CCCN(C)CC4)nc3n3c2sc2ccccc23)cn1
> 10 µM: IC50 (second compound 0.0316 µM) | IC50 (second compound 0.1 µM) | IC50 (second compound 0.316 µM) | IC50 (second compound 1 µM) | IC50 (second compound 3.16 µM) | IC50 (second compound 10 µM)
inactive: viability, T/C [1] 89.8% | viability, T/C [2] 75.8% | viability, T/C [3] 90.8% | viability, T/C [4] 84.7% | viability, T/C [5] 98.8% | viability, T/C [6] 92.8% | viability, T/C [7] 75.4% | viability, T/C [8] 78.2% | viability, T/C [9] 80.1% | viability, T/C [10] 88.6% | viability, T/C [11] 80.2% | viability, T/C [12] 82.5% | viability, T/C [13] 77.2% | viability, T/C [14] 72.1% | viability, T/C [15] 81.9% | viability, T/C [16] 76.4% | viability, T/C [17] 86.4% | viability, T/C [18] 84.8% | viability, T/C [19] 73.5% | viability, T/C [20] 79.1% | viability, T/C [21] 85.6% | viability, T/C [22] 79.5% | viability, T/C [23] 77.6% | viability, T/C [24] 87.4% | viability, T/C [25] 65.7% | viability, T/C [26] 69.8% | viability, T/C [27] 70% | viability, T/C [28] 56.6% | viability, T/C [29] 79% | viability, T/C [30] 71% | viability, T/C [31] 69.9% | viability, T/C [32] 63.3% | viability, T/C [33] 73.9% | viability, T/C [34] 69% | viability, T/C [35] 66.5% | viability, T/C [36] 79.3%

Cn1ncnc1[C@H]1c2n[nH]c(=O)c3cc(F)cc(c23)N[C@@H]1c1ccc(F)cc1 + Cc1cnc(CNC(=O)c2c(=O)c3ccc(N4CCCN(C)CC4)nc3n3c2sc2ccccc23)cn1
inactive: viability, T/C (second compound 0.0316 µM, first compound 0.000999 µM) 94.8% | viability, T/C (second compound 0.0316 µM, first compound 0.00316 µM) 72.2% | viability, T/C (second compound 0.0316 µM, first compound 0.00999 µM) 79.9% | viability, T/C [1] 82.6% | viability, T/C (second compound 0.0316 µM, first compound 0.0999 µM) 82.9% | viability, T/C [3] 83.8% | viability, T/C (second compound 0.1 µM, first compound 0.000999 µM) 92.2% | viability, T/C (second compound 0.1 µM, first compound 0.00316 µM) 85.1% | viability, T/C (second compound 0.1 µM, first compound 0.00999 µM) 73% | viability, T/C [7] 78.3% | viability, T/C (second compound 0.1 µM, first compound 0.0999 µM) 89.2% | viability, T/C [9] 87.3% | viability, T/C (second compound 0.316 µM, first compound 0.000999 µM) 78.6% | viability, T/C (second compound 0.316 µM, first compound 0.00316 µM) 91.9% | viability, T/C (second compound 0.316 µM, first compound 0.00999 µM) 86.4% | viability, T/C [13] 82.8% | viability, T/C (second compound 0.316 µM, first compound 0.0999 µM) 80.8% | viability, T/C [15] 78.2% | viability, T/C (second compound 1 µM, first compound 0.000999 µM) 70.3% | viability, T/C (second compound 1 µM, first compound 0.00316 µM) 65.9% | viability, T/C (second compound 1 µM, first compound 0.00999 µM) 80.1% | viability, T/C [19] 74.4% | viability, T/C (second compound 1 µM, first compound 0.0999 µM) 88.5% | viability, T/C [21] 69.2% | viability, T/C (second compound 3.16 µM, first compound 0.000999 µM) 69.5% | viability, T/C (second compound 3.16 µM, first compound 0.00316 µM) 71.5% | viability, T/C (second compound 3.16 µM, first compound 0.00999 µM) 61.2% | viability, T/C [25] 67.5% | viability, T/C (second compound 3.16 µM, first compound 0.0999 µM) 70.7% | viability, T/C [27] 62.8% | viability, T/C (second compound 10 µM, first compound 0.000999 µM) 68.4% | viability, T/C (second compound 10 µM, first compound 0.00316 µM) 59.1% | viability, T/C (second compound 10 µM, first compound 0.00999 µM) 64.8% | viability, T/C [31] 71.8% | viability, T/C (second compound 10 µM, first compound 0.0999 µM) 66.2% | viability, T/C [33] 63.5%
> 0.316 µM: IC50 (second compound 0.0316 µM) | IC50 (second compound 0.1 µM) | IC50 (second compound 0.316 µM) | IC50 (second compound 1 µM) | IC50 (second compound 3.16 µM) | IC50 (second compound 10 µM)

O=C(c1cc(Cc2n[nH]c(=O)c3ccccc23)ccc1F)N1CCN(C(=O)C2CC2)CC1 + Cc1cnc(CNC(=O)c2c(=O)c3ccc(N4CCCN(C)CC4)nc3n3c2sc2ccccc23)cn1
> 10 µM: IC50 (second compound 0.0316 µM) | IC50 (second compound 0.1 µM) | IC50 (second compound 0.316 µM) | IC50 (second compound 1 µM) | IC50 (second compound 3.16 µM) | IC50 (second compound 10 µM)
inactive: viability, T/C [1] 80.1% | viability, T/C [2] 85% | viability, T/C [3] 89.3% | viability, T/C [4] 79.3% | viability, T/C [5] 90.8% | viability, T/C [6] 91.6% | viability, T/C [7] 81.1% | viability, T/C [8] 92.8% | viability, T/C [9] 82.2% | viability, T/C [10] 83.8% | viability, T/C [11] 85.5% | viability, T/C [12] 83% | viability, T/C [13] 96% | viability, T/C [14] 91.4% | viability, T/C [15] 83.4% | viability, T/C [16] 81.8% | viability, T/C [17] 96.7% | viability, T/C [18] 73.5% | viability, T/C [19] 69.9% | viability, T/C [20] 77.1% | viability, T/C [21] 91.2% | viability, T/C [22] 75.5% | viability, T/C [23] 83.8% | viability, T/C [24] 67.3% | viability, T/C [25] 76.9% | viability, T/C [26] 70% | viability, T/C [27] 61.1% | viability, T/C [28] 68.4% | viability, T/C [29] 77.2% | viability, T/C [30] 72.7% | viability, T/C [31] 74.5% | viability, T/C [32] 68.1% | viability, T/C [33] 80.2% | viability, T/C [34] 62.5% | viability, T/C [35] 77.8% | viability, T/C [36] 53.2%
